Results as given in patent publication US6723235B2, “Apparatus for screening compound libraries” (priority 1998, dated 2004).

Target: cholera toxin B subunit (Vibrio cholerae serotype O1, UniProt P01556)
Type: binding

Chain of cholera toxin B subunit (P01556 22-124 limits assumed): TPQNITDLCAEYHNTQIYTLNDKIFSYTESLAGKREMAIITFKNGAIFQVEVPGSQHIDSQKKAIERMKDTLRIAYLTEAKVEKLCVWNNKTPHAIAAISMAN

SMILES	break through relative to void volume	break through volume (pH 6.9) [µL]
COC(=O)CCCCCCCCOC1OC(COC2OC(CO)C(O)C(O)C2O)C(O)C(OC2OC(CO)C(O)C(O)C2O)C1O (centres unmarked) [compound 3, αMan(1→3)[αMan(1→6)]βMan-OGr]	broke through in the void volume	–
CC(=O)N[C@H]1[C@H](O[C@@H]2[C@H](O[C@]3(C(=O)O)C[C@H](O)[C@@H](NC(C)=O)[C@H]([C@H](O)[C@H](O)CO)O3)[C@@H](O)[C@H](O[C@H]3[C@H](O)[C@@H](O)[C@H](O)O[C@@H]3CO)O[C@@H]2CO)O[C@H](CO)[C@H](O)[C@@H]1O[C@@H]1O[C@H](CO)[C@H](O)[C@H](O)[C@H]1O [compound 7, GM1 oligosaccharide]	–	~300
